Data set [1] deals with LMWH (bemiparin) anticoagulation. Kind of data set: DAP reversal of LMWH (bemiparin) anticoagulation in vivo, aPTT. Also noted: species or system rat. The source says: The activated partial thromboplastin time (aPTT) assay is an assay that measures how long it takes for the blood to clot. Blood samples are collected for direct measurement or in tubes with oxalate and citrate to arrest coagulation by calcium until the assay can be performed. In the assay, a phospholipid, an activator (silica, celite, kaolin, ellagic acid, etc.), and calcium are mixed into the plasma to induce coagulation. The assay measures the time until a thrombus (clot) forms.
A male albino rat, weighing 470 g, was administered 10 mg of bemiparin (an overdose of LMWH) by subcutaneous injection. aPTT time was measured over the course of five hours. Four hours after LMWH administration, the rat received an intravenous dose of 200 mg/kg of DAP (100 mg DAP).

A short description of data set [2]: DLS association of DAP with LMWH (bemiparin). Format: binding. On the procedure:
Dynamic light scattering (DLS) was used to assess association of 1 mg/ml unfractionated heparin and 1 mg/ml bemiparin (LMWH; HIBOR®), either alone or in combination with […] DAP in water (mass ratios of 100:1 of DAP to heparin or LMWH).
(§1) Rivaroxaban (XARELTO®) alone, DAP alone, and DAP:rivaroxaban combinations at mass ratios of 1:1 and 10:1 were added into an aqueous solution and analyzed by dynamic light scattering (DLS) to assess association of the DAP and rivaroxaban. A similar experiment was conducted on apixaban (ELIQUIS®) alone, DAP alone, and DAP:apixaban combinations at mass ratios of 1:1, 10:1 and 100:1. Fondaparinux (ARIXTRA®) alone, DAP alone, and fondaparinux:DAP combinations at mass ratios of 1:1, 10:1 and 100:1 were similarly tested. LMWH (bemiparin; HIBOR®), alone, DAP alone, and LMWH:DAP combinations at mass ratios of 1:1, 10:1, and 100:1 were also tested. The concentration of LMWH tested was 0.1 mg/ml. Therefore, at 1:1, 0.1 mg/ml DAP was tested, at 10:1, 1 mg/ml was tested, and at 100:1, 10 mg/ml DAP was tested.

The subject of another data set is CYP enzymes. Kind of data set: CYP enzyme inhibition / substrate. The note with it: data not shown. Format: in vitro ADME.
Data set [3] relates to rivaroxaban anticoagulation. Kind of data set: DAP reversal of rivaroxaban in human plasma ex vivo, Biophen anti-Factor Xa chromogenic assay. It is filed as biochemical. As for the experimental part: The anti-factor Xa assay directly measures anti-factor Xa activity. The methodology behind an anti-factor Xa assay is that patient plasma is added to a known amount of excess factor Xa and excess antithrombin. If a factor Xa inhibitor is present in the patient plasma, it will reduce the enzymatic activity of factor Xa. The amount of residual factor Xa is inversely proportional to the amount of anti-Xa agent in the plasma. The amount of residual factor Xa is detected by adding a chromogenic substrate that mimics the natural substrate of factor Xa, making residual factor Xa cleave it, releasing a colored compound that can be detected by a spectrophotometer. […]
218 μg/L or 459 μg/L of rivaroxaban was added to human plasma, with or without 1,250 μg/L or 6,250 μg/L of DAP, respectively. […] DAP effect on anticoagulation was measured by 510 k cleared Biophen anti-Factor Xa chromogenic assay. Rivaroxaban concentrations were determined by comparison with plasma calibration standards, while apixaban concentrations were inferred from stock solution dilutions as calibration standards are not yet available.
218 μg/L rivaroxaban was added to human plasma either alone or in combination with 1.25, 12.5, 125, or 1,250 μg/L of DAP. Factor Xa activity was measured by 510 k cleared Biophen anti-Xa chromogenic assay kit. Rivaroxaban concentrations were determined by comparison with plasma calibration standards.

Data set [4] is described as follows: DLS association of DAP with apixaban. It is filed as binding. As for the experimental part: as §1
A further data set concerns aPTT. Nature of the data set: Intravenous DAP alone, aPTT in the absence of anticoagulants. To be noted: 0, 2, 10, 25, 50 or 100 mg DAP i.v., no anticoagulant. Format: in vivo, rat. As for the experimental part:
0, 2, 10, 25, 50 or 100 mg DAP were administered intravenously to male, weight matched CD rats and aPTT was measured.

Data set [5] in a line: DLS association of DAP with argatroban. It is filed as binding. To be noted: concentrations up to 1:1000.
Data set [6] deals with apixaban (ELIQUIS®) anticoagulation. Nature of the data set: Rat tail transection bleeding assay, apixaban. Format: in vivo. To be noted: for blood loss (blood collected over 30 minutes): p<0.01 vs apixaban only. As for the experimental part: (§2) Rat tail bleeding assay or rat tail transection assay is an assay that measures blood loss, e.g., blood loss after drug administration. In one embodiment, where the effect of the compound of the invention (e.g., DAP) is being tested, at the Tmax of the anticoagulant, DAP is administered intravenously. After 20 minutes, rat tails are transected approximately 1 mm from the tip, placed in room temperature saline, and blood is collected for 30 minutes and weighed.
(§3) Three rats each were administered 2 mg of rivaroxaban. One rat received a sham reversal containing no DAP, the second received 2.5 mg of DAP, and the third received 12.5 mg DAP. A fourth fat received sham anticoagulant and reversal doses (“sham”). 20 minutes after the reversal dose, tails were transected 1 mm from the tip, placed in room temperature saline, and blood loss was collected for 30 minutes and then weighed.
Same procedures were used with 1.25 mg apixaban (ELIQUIS®) alone or in combination with 5 or 12.5 mg DAP; with 15.5 mg dabigatran etexilate (PRADAXA®) alone or in combination with 5 or 12.5 mg DAP; and with 5 mg edoxaban (LIXIANA®) alone or in combination with 12.5 mg DAP.

Data set [7] can be described thus: Oral bioavailability of DAP in rats. It is filed as in vivo, rat.
Data set [8] has as its system edoxaban (LIXIANA®) anticoagulation. Nature of the data set: Rat tail transection bleeding assay, edoxaban. Format: in vivo. As for the experimental part:
as §2, §3
Same procedures were used with 1.25 mg apixaban (ELIQUIS®) alone or in combination with 5 or 12.5 mg DAP; with 15.5 mg dabigatran etexilate (PRADAXA®) alone or in combination with 5 or 12.5 mg DAP; […]

The mark [9] stands for this setting: rat tail transection, 30 minutes.

“Also recorded” adds a separate entry of the source.

Consider `N=C(N)NCCC[C@H](N)C(=O)NCCCN1CCN(CCCNC(=O)[C@@H](N)CCCNC(=N)N)CC1` (stereo in doubt) [DAP, 2-Amino-5-guanidino-pentanoic acid (3-{4-[3-(2-amino-5-guanidino-pentanoylamino)-propyl]-piperazin-1-yl}-propyl)-amide], for which the “time until aPTT below baseline after DAP” value in data set [1] (200 mg/kg (100 mg) DAP i.v. four hours after 10 mg bemiparin s.c.) is ≤ 60 min. For the same molecule, the “reversal of subcutaneous LMWH anticoagulation in vivo” value in [1] (rats, aPTT) was “reversed”. In addition, the “physical association / binding by DLS” value in data set [2] is recorded as “physically associated; also recorded: directly bound”. Further, in the data set on CYP enzymes, the “inhibition / substrate of CYP enzymes” value is listed as “did not inhibit or serve as a substrate”. Also, the “effective anticoagulant concentration after DAP” value in [3] (218 μg/L rivaroxaban with 1,250 μg/L DAP, 459 μg/L rivaroxaban with 6,250 μg/L DAP) is listed as “below the minimum effective concentration”. The “dose dependence of rivaroxaban reversal” value in [3] (218 μg/L rivaroxaban, 1.25, 12.5, 125, or 1,250 μg/L DAP) was “dose-responsive trend; also recorded: dose-dependent reversal”. The “binding by DLS” value in data set [4] is “directly bound”; in [5], “did not bind”. Further, the “influence of DAP on aPTT” value in the data set on aPTT is “did not influence aPTT”. For the same molecule, the “blood loss (blood collected over 30 minutes)” value in data set [6] (1.25 mg apixaban and 5 mg DAP) is reported as “reduced blood loss to sham dose levels”; in data set [6] (1.25 mg apixaban and 12.5 mg DAP) it was “reduced blood loss to sham dose levels”; in [8] (1.25 mg edoxaban and 12.5 mg DAP, p<0.05 vs edoxaban only), “reduced blood loss to sham dose levels”. The “reversal of apixaban, blood loss vs anticoagulant only” value in [6] (setting [9]) is listed as “reversed; also recorded: statistically significant reduction in blood loss”. Besides, the oral bioavailability result in data set [7] is “orally bioavailable”. Besides, the “reversal of edoxaban, blood loss vs anticoagulant only” value in data set [8] (setting [9]) is on record as “reversed; also recorded: statistically significant reduction in blood loss”.

The values above are taken from patent publication US9877961B2, “Anticoagulant reversal agents” (PEROSPHERE INC., priority 2011, dated 2018).
